Assays:
[1] = tested on: BAF3 cells expressing MER; assay: BAF3-MER cell proliferation assay (CellTiter-Glo); format: cell-based; conditions: Mus musculus, 48 hours, 2% FBS
Description: (§1) To evaluate the cellular potency and selectivity within the TAM receptor family, mouse BAF3 cell lines with stable expression of AXL, MER, or TYRO3 were generated.
(§2) The cytoplasmic domain of AXL, MER, or TYRO3 fused with dimerization sequence and HA tag was cloned into a pMSCV (murine stem cell virus) vector with a puromycin-resistance marker to generate three constructs individually by electroporation into BAF3 cells. Single clones that were IL-3-independent and puromycin-resistant were selected and characterized. To evaluate effects on BAF3 cell proliferation, 1000 cells/well of BAF3, BAF3-AXL, BAF3 MER, or BAF3-TYRO3 cells were treated in the presence or absence of Compound 1 at various concentrations (10 concentration points with a three-fold dilution factor from the highest concentration of 10 μM) diluted in RPMI-1640 with 2% FBS for 48 hours in a 384-well plate. Cell viability was measured by ATP assay (CellTiter-Glo Assay, Promega, Madison, Wis.) according to the manufacturer's procedure. The data were converted to percent inhibition relative to DMSO control, and IC50 curves were fitted using GraphPad Prism software.

[2] = tested on: TYRO3-expressing BAF3 cells; assay: BAF3-TYRO3 cell proliferation assay (CellTiter-Glo); format: cell-based, mouse
Description: as §1, §2

CTG-1339 tumors = assay: Sarcoma PDX model CTG-1339 (osteosarcoma); format: in vivo, athymic nude mice
Method: Macrophages were allowed to thaw on ice before being lysed with 250 μL/well of 1× Lysis Buffer (Cell Signaling Technology; #9803) and Halt protease and phosphatase inhibitors (ThermoFisher Scientific) for 1 hour at 4° C. The lysed cells were scraped and transferred to an Eppendorf vial on ice. The lysates were centrifuged at 12,700 rpm for 15 minutes at 4° C. PDX tumors were weighed and homogenized with lysis buffer supplemented with protease and phosphatase inhibitor cocktails (Roche, Basel, Switzerland; #11836170001). Tumors were lysed on ice for 30 minutes, followed by centrifugation at 13,000 rpm for 10 minutes. Protein lysates were quantified using BCA Protein Assay Kit (Pierce, ThermoFisher Scientific; #23225). Lysates were transferred to a new tube together with 6× Laemmli SDS sample buffer (Alfa Aesar, Haverhill, Mass.) and the samples were heated for 6 minutes at 95° C. Approximately 50 μg of protein sample was loaded per well using Novex™ 8-16% Tris-Glycine Mini Gels or 4-12% Tris-Glycine Novex WedgeGels (Invitrogen, Carlsbad, Calif.). The proteins were transferred to a nitrocellulose membrane using an iBlot (ThermoFisher Scientific) dry blotting system. The membranes were blocked with 0.5% nonfat dry milk in wash buffer (100 mM NaCl, 10 mM Tris-HCl, pH 8.0, 0.1% Tween 20) for 1 hour at room temperature. The primary antibody used for pMER was from PhosphoSolutions (Aurora, Colo.; #p186-749). The remaining antibodies were obtained from Cell Signaling Technology: MER (#4319), pAXL (#5724), AXL, (#4566), GAS6 (#67202), pAKT (#4060), AKT (#9272), and β-Actin (#4970). Primary antibodies were added at 1:500 and 1:1000, respectively, in 0.5% milk/wash buffer and rocked overnight at 4° C. The membranes were washed three times in wash buffer before incubation with the secondary antibody (anti-rabbit IgG1-HRP; Cell Signaling Technology) at 1:2500 in 0.5% milk/wash buffer for 2 hours at room temperature. The membranes were washed again before the bands were detected with SuperSignal West Dura Extended Duration Chemiluminescent substrate (ThermoFisher Scientific) and were visualized using the Fluorochem M Digital Imager (Protein Simple, San Jose, Calif.).
MBT-2 cells were obtained from the Japanese Collection of Research Bioresources Cell Bank and were maintained in DMEM supplemented with 10% FBS. MC38 cells were obtained from the NCI. 4T1 cells were obtained from ATCC and maintained in RPMI media supplemented with 10% FBS. For MBT-2 experiments, 5×10^5 MBT-2 cells were inoculated subcutaneously into the right hind flank of 6- to 8-week-old C3H mice or athymic nude mice (Charles River Laboratories, Wilmington, Mass.). […] Mice were monitored for tumor growth and overt tolerability over the course of the experiment. […]

CC(C)C(=O)N1CCC(c2cc(-c3ccc(NC(=O)c4cn(C(C)C)c(=O)n(-c5ccccn5)c4=O)cc3)c3c(N)ncnn23)CC1 [Compound 1, N-(4-(4-Amino-7-(1-isobutyrylpiperidin-4-yl)pyrrolo[1,2-f][1,2,4]triazin-5-yl)phenyl)-1-isopropyl-2,4-dioxo-3-(pyridin-2-yl)-1,2,3,4-tetrahydropyrimidine-5-carboxamide]
GI50 [1]: 0.014 ± 0.0049 µM
selectivity against TYRO3 (cellular) ([2]; BAF3 transfectants): > 30 fold
IC50 ([2]; Mus musculus, BaF3, 48 hours, 2% FBS, read-out: IC50, growth of TYRO3-expressing BAF3 cells): 0.498 ± 0.161 µM
antitumor response (CTG-1339 tumors; CTG-1339, 10, 30, 100 mg/kg BID oral, FIG. 9C): resistant
pAKT in tumors (Western blot) (CTG-1339 tumors; CTG-1339 tumors, FIG. 9D): only inhibited in CTG-2041
pAXL and pMER in tumors (Western blot) (CTG-1339 tumors; CTG-1339 tumors, FIG. 9D): inhibited
total MER levels in tumors (Western blot) (CTG-1339 tumors; CTG-1339 tumors, FIG. 9D): increased

From patent publication US12214036B2, “Combination therapy comprising AXL/MER and PD-1/PD-L1 inhibitors” (Incyte Corporation, priority 2020, dated 2025)
